Results taken from the Deep4Chem optical property database.
Blank lines part the entries; values can stand above or below the compound they belong to.

Experiment: solvent given as SMILES
[1] = in c1ccc2c(c1)c1ccccc1n2-c1ccc(-c2ccc(-n3c4ccccc4c4ccccc43)cc2)cc1

fluorescence lifetime (in ClCCl): 2.25 ns
Compound: COC(=O)c1cc(=O)n(C)c2cc(-c3cc4c5c(c3)CCCN5CCC4)sc12

fluorescence lifetime (in CC#N): 4.03 ns | fluorescence lifetime (in CCO): 4 ns | fluorescence lifetime (in CN(C)C=O): 3.68 ns | fluorescence lifetime (in O): 4.28 ns
Compound: Nc1ccc2c(-c3ccccc3C(=O)[O-])c3ccc(=[NH2+])cc-3oc2c1

fluorescence lifetime (in O): 3.49 ns
Compound: CC1(C)C(=O)C=Cc2ccc(N)cc21

fluorescence lifetime (in ClCCl): 2.5 ns
Compound: N#Cc1ccc(C2=Cc3cc4ccccc4cc3P2(=O)c2ccccc2)cc1 (stereo not drawn)

fluorescence lifetime (in C1CCCCC1): 5.6 ns
Compound: Nc1ccc2ccc3cccc4ccc1c2c34

fluorescence lifetime (in ClCCl): 3.5 ns
Compound: O=P1(c2ccccc2)C(c2ccccc2)=Cc2cc3ccccc3cc21 (stereo not drawn)

fluorescence lifetime (in c1ccccc1): 4.8 ns
Compound: O=c1oc2ccc3ccc(O)cc3c2nc1-c1ccccc1

fluorescence lifetime (in C1CCCCC1): 0.67 ns
Compound: COC(=O)c1nc(Cl)c(-c2ccccc2)o1

fluorescence lifetime (in CC#N): 5.25 ns | fluorescence lifetime (in CC(C)O): 4.36 ns | fluorescence lifetime (in CCCCCCCCO): 4.17 ns | fluorescence lifetime (in CCCCCCO): 4.27 ns | fluorescence lifetime (in CCCCO): 4.3 ns | fluorescence lifetime (in CCCO): 4.3 ns | fluorescence lifetime (in CCO): 4.74 ns | fluorescence lifetime (in CN(C)C=O): 4.78 ns | fluorescence lifetime (in CO): 4.59 ns | fluorescence lifetime (in O): 4.91 ns | fluorescence lifetime (in [2H]O[2H]): 4.8 ns
Compound: O=C([O-])c1ccccc1C1=c2cc3c4c(c2Oc2c1cc1c5c2CCCN5CCC1)CCC[N+]=4CCC3

fluorescence lifetime (in CCCCCC): 6.1 ns | fluorescence lifetime (in CO): 6.31 ns | fluorescence lifetime (in ClCCl): 5.93 ns
Compound: CC1=CC(C)=[N+]2C1=C(C)c1cccn1[B-]2(F)F

fluorescence lifetime (in C1CCOC1): 0.64 ns | fluorescence lifetime (in CCCCCC): 5.4 ns | fluorescence lifetime (in c1ccccc1): 2.14 ns
Compound: O=C1OC(=O)c2ccc(N(c3ccccc3)c3c4ccccc4cc4ccccc34)c3cccc1c23

fluorescence lifetime (in CS(C)=O): 5.5 ns
Compound: CCCCCCCCCCCCOc1cc2cc(N(C)C)ccc2cc1C#N

fluorescence lifetime (in CC#N): 2.1 ns
Compound: COc1cc(C#Cc2ccccc2)c(C#Cc2ccccc2)cc1OC

fluorescence lifetime (in O): 0.84 ns
Compound: COc1cc(N(CC(=O)[O-])CC(=O)[O-])c2ncccc2c1

fluorescence lifetime (in ClC(Cl)Cl): 26 ns
Compound: c1ccc2c(c1)ccc1ccc3ccc4ccccc4c3c12

fluorescence lifetime (in ClCCl): 4.28 ns
Compound: CCN(CC)c1ccc2c(c1)oc(=O)c1c(C)nc3c(c(-c4ccccc4)nn3C)c12

fluorescence lifetime (in C1CCCCC1): 0.4 ns | fluorescence lifetime (in CC#N): 17.8 ns | fluorescence lifetime (in CCO): 1.9 ns | fluorescence lifetime (in c1ccccc1): 2.8 ns
Compound: O=C1c2ccccc2-c2ccccc21

fluorescence lifetime (in ClCCl): 16.9 ns
Compound: CCN(CC)c1ccc2c(c1)oc(=O)c1cc3cnn(-c4ccccc4)c3nc12

Further lines, the compound ahead of its results:

Compound: COc1ccc(/C=C/C2=CC(/C=C/c3ccc(OC)c4ccccc34)=[O+][B-](F)(F)O2)c2ccccc12
fluorescence lifetime (in CC#N): 0.65 ns | fluorescence lifetime (in CC(C)=O): 1.03 ns | fluorescence lifetime (in CCOC(C)=O): 1.51 ns | fluorescence lifetime (in CCOCC): 1.34 ns | fluorescence lifetime (in ClC(Cl)(Cl)Cl): 1.18 ns | fluorescence lifetime (in ClCCl): 1.96 ns

Compound: CCCn1c2cccc3oc4cccc5c4[c+](c32)c2c1cccc2n5CCC
fluorescence lifetime (in CC#N): 19.4 ns | fluorescence lifetime (in CO): 17.8 ns | fluorescence lifetime (in ClCCl): 20.6 ns | fluorescence lifetime (in OCC(O)CO): 18.3 ns

Compound: FC(F)(F)C(F)(F)C(F)(F)C(F)(F)C(F)(F)C(F)(F)CCOc1nnc(Cl)nn1
fluorescence lifetime (in ClCCl): 153 ns | fluorescence lifetime (in OCC(F)(F)F): 152 ns

Compound: O=P1(c2ccccc2)c2ccccc2-c2sc3ccccc3c21 (stereo not drawn)
fluorescence lifetime (in ClCCl): 11.3 ns

Compound: C(=C\c1ccccc1)/c1ccccc1
fluorescence lifetime (in CC#N): 0.07 ns

Compound: CC(C)(C)NC1=CC2=c3cc(NC(C)(C)C)c4nc(C(F)(F)C(F)(F)C(F)(F)F)nc5c(NC(C)(C)C)cc(c3c54)C3=CC(NC(C)(C)C)=C4N=C(C(F)(F)C(F)(F)C(F)(F)F)N=C1C4C32 (stereo not drawn)
fluorescence lifetime (in C1CCOC1): 6.1 ns

Compound: O=c1oc2ccccc2cc1-c1ccc(-c2ccc(-c3cc4ccccc4oc3=O)cc2)cc1
fluorescence lifetime (in ClCCl): 9.47 ns

Compound: Cc1nc(-c2ccc(-n3c4ccccc4c4ccccc43)cc2)cc(-c2ccc(-n3c4ccccc4c4ccccc43)cc2)n1
fluorescence lifetime (in C1CCOC1): 4.1 ns | fluorescence lifetime (in CN(C)C=O): 6.95 ns | fluorescence lifetime (in Cc1ccccc1): 2.05 ns | fluorescence lifetime (in ClC(Cl)Cl): 3.86 ns

Compound: Nc1ccccc1
fluorescence lifetime (in C1CCCCC1): 3.4 ns

Compound: c1coc(-c2nc3ccccc3[nH]2)c1
fluorescence lifetime (in C1CCOC1): 1.47 ns | fluorescence lifetime (in CCCCCC): 1.48 ns | fluorescence lifetime (in CCO): 1.55 ns | fluorescence lifetime (in CCOCC): 1.53 ns | fluorescence lifetime (in CO): 1.58 ns | fluorescence lifetime (in ClC(Cl)Cl): 0.6 ns | fluorescence lifetime (in ClCCl): 1.26 ns | fluorescence lifetime (in O): 1.67 ns

Compound: CCCCc1cc2cccc3cc(CCCC)c4cc(-c5cc6[b-]7c(c5)c(CCCC)cc5cccc(cc6CCCC)[n+]75)cc1[b-]4[n+]23
fluorescence lifetime (in C1CCCCC1): 20.5 ns

Compound: c1ccc(-c2nc(-c3ccccc3)nc(-c3cc(-n4c5ccccc5c5ncccc54)c(-n4c5ccccc5c5ncccc54)c(-n4c5ccccc5c5ncccc54)c3)n2)cc1
fluorescence lifetime (in O=P(c1ccccc1)(c1ccccc1)c1ccc2oc3ccc(P(=O)(c4ccccc4)c4ccccc4)cc3c2c1): 14.5 ns

Compound: N#Cc1cc(C#N)cc(-n2c3ccccc3c3cc(-c4ccc5c(c4)c4ccccc4n5-c4cc(C#N)cc(C#N)c4)ccc32)c1
fluorescence lifetime (in Cc1ccccc1): 24 ns

Compound: CCN(CC)c1ccc2cc(-c3ccc(-c4ccc(-c5cc6ccc(N(CC)CC)cc6oc5=O)cc4)cc3)c(=O)oc2c1
fluorescence lifetime (in ClCCl): 10.1 ns

Compound: Cc1cc(=O)oc2cc3c(cc12)c1c2ccccc2c2ccccc2c1c1c2ccccc2c2ccccc2c31
fluorescence lifetime (in ClC(Cl)Cl): 10.7 ns

Compound: c1ccc2c(c1)OP1(=NP3(=NP(Oc4ccc5ccc6cccc7ccc4c5c67)(Oc4ccc5ccc6cccc7ccc4c5c67)=N1)Oc1ccccc1-c1ccccc1O3)Oc1ccccc1-2
fluorescence lifetime (in ClCCl): 1.23 ns

Compound: CC1=[N+]2C(=C(c3ccccc3C)c3ccc(C)n3[B-]2(F)F)C=C1c1cc2n(c1)[B-](F)(F)[N+]1=CC=CC1=C2c1c(C)cc(C)cc1C
fluorescence lifetime (in C1CCCCC1): 2.84 ns | fluorescence lifetime (in CCOC(C)=O): 0.81 ns

Compound: O=C(c1ccc(N2c3ccccc3Sc3ccccc32)cc1)c1ccc2sc3ccccc3c2c1
fluorescence lifetime [1]: 37.4 ns

Compound: c1ccc(N(c2ccccc2)c2ccc(-c3ccc(-c4ccc(-c5ccc(-c6ccc(N(c7ccccc7)c7ccccc7)cc6)s5)c5nsnc45)s3)cc2)cc1
fluorescence lifetime (in ClC(Cl)Cl): 5.13 ns

Compound: CC1(C)c2ccccc2N(c2ccc(-c3nc([C@]45CC6CC(C[C@@H](C6)C4)C5)nc([C@]45C[C@H]6C[C@@H](C[C@H](C6)C4)C5)n3)cc2)c2ccccc21
fluorescence lifetime (in CC(C)(C)c1ccc(-n2c3ccc([Si](c4ccccc4)(c4ccccc4)c4ccccc4)cc3c3cc([Si](c4ccccc4)(c4ccccc4)c4ccccc4)ccc32)cc1): 14.4 ns

Compound: N#Cc1c(-n2c3ccccc3c3ccccc32)cc(N2c3ccccc3C(c3ccccc3)(c3ccccc3)c3ccccc32)cc1-n1c2ccccc2c2ccccc21
fluorescence lifetime (in Cc1ccccc1): 18.4 ns

Compound: CCc1c(C)c2n(c1C)[B-](F)(F)[N+]1=C(c3ccc[nH]3)c3ccccc3C1=C2
fluorescence lifetime (in ClCCl): 6.41 ns

Compound: CC(C)(C)c1ccc2c(c1)c1cc(C(C)(C)C)ccc1n2-c1ccc(C#Cc2ccc3c4ccc(C#Cc5ccc(/C=C(/C#N)C(=O)O)cc5)cc4n(-c4ccc(C(F)(F)F)cc4)c3c2)cc1
fluorescence lifetime (in ClCCl): 1.27 ns

Compound: F[B-]1(F)n2c(Nc3cccc4cccnc34)ccc2C(c2ccccc2)=C2C=CC(Cl)=[N+]21
fluorescence lifetime (in C1CCCCC1): 3.21 ns | fluorescence lifetime (in Cc1ccccc1): 0.82 ns

Compound: CN(C)c1ccc(/C=C2\CC/C(=C\c3ccc(N(C)C)cc3)C2=O)cc1
fluorescence lifetime (in C1CCOC1): 0.6 ns | fluorescence lifetime (in C1COCCO1): 0.5 ns | fluorescence lifetime (in CC#N): 0.54 ns | fluorescence lifetime (in CC(C)=O): 0.74 ns | fluorescence lifetime (in CC(C)O): 0.68 ns | fluorescence lifetime (in CCO): 0.34 ns | fluorescence lifetime (in CCOC(C)=O): 0.59 ns | fluorescence lifetime (in CN(C)C=O): 0.92 ns | fluorescence lifetime (in CO): 0.29 ns | fluorescence lifetime (in CS(C)=O): 0.85 ns | fluorescence lifetime (in Cc1ccccc1): 0.48 ns | fluorescence lifetime (in ClC(Cl)(Cl)Cl): 0.37 ns | fluorescence lifetime (in ClC(Cl)Cl): 0.57 ns | fluorescence lifetime (in ClCCl): 0.77 ns | fluorescence lifetime (in S=C=S): 0.51 ns

Compound: COC(=O)/C(C#N)=c1\s/c(=c2/s/c(=C(/C#N)C(=O)OC)c3cc(-c4ccc(C(F)(F)F)cc4)sc23)c2sc(-c3ccc(C(F)(F)F)cc3)cc12
fluorescence lifetime (in Cc1ccccc1): 2.32 ns

Compound: Cc1c(C(=O)c2ccc3c4cccc5cccc(c6cccc2c63)c54)c2ccc3cccc4c5cccc6ccc1c(c65)c2c34
fluorescence lifetime (in ClCCl): 1.1 ns

Compound: CC1(C)c2ccccc2N(c2ccccc2)c2ccc(-c3ccc(-c4ccc5c(c4)C(C)(C)c4ccccc4N5c4ccccc4)c4nsnc34)cc21
fluorescence lifetime [1]: 7.2 ns

Compound: Fc1c(-n2c3ccccc3c3ccccc32)c(F)c(-n2c3ccccc3c3ccccc32)c(-c2nnc(-c3ccccc3)o2)c1-n1c2ccccc2c2ccccc21
fluorescence lifetime (in Cc1ccccc1): 3.9 ns

Compound: N#Cc1ncc(-c2c3ccccc3c(-c3cnc(C#N)nc3)c3ccccc23)cn1
fluorescence lifetime (in CCO): 1.8 ns | fluorescence lifetime (in ClCCl): 5.8 ns

Compound: C[Si]1(C)c2ccc(-c3ccc(-c4cccs4)s3)cc2C=Cc2cc(-c3ccc(-c4cccs4)s3)ccc21
fluorescence lifetime (in ClCCl): 0.47 ns

Compound: c1ccc(N(c2ccccc2)c2ccc(-c3ccc4c(c3)C3(c5cc(-c6ccc(N(c7ccccc7)c7ccccc7)cc6)ccc5-4)c4ccccc4N(c4ccccc4)c4ccccc43)cc2)cc1
fluorescence lifetime (in ClCCl): 1.2 ns

Compound: O=Cc1ccc2ccc3cccc4ccc1c2c34
fluorescence lifetime (in C1CCOC1): 127 ns | fluorescence lifetime (in CC#N): 8.76 ns | fluorescence lifetime (in CCCCCC): 7.43 ns | fluorescence lifetime (in CCO): 6.44 ns | fluorescence lifetime (in CN(C)C=O): 64.8 ns | fluorescence lifetime (in CO): 0.953 ns | fluorescence lifetime (in Cc1ccccc1): 15.3 ns | fluorescence lifetime (in ClCCl): 3.45 ns

Compound: C(=C\c1ccc(N(c2ccccc2)c2ccccc2)cc1)/c1ccccc1
fluorescence lifetime (in CC#N): 1.37 ns | fluorescence lifetime (in CCCCCC): 0.51 ns

Compound: CC(C)(C)NC1=C2C=CC=[N+]2[B-](F)(F)n2cccc21
fluorescence lifetime (in C1CCCCC1): 6.17 ns | fluorescence lifetime (in CC(C)=O): 0.0272 ns | fluorescence lifetime (in CCO): 0.0307 ns | fluorescence lifetime (in CCOC(C)=O): 0.188 ns | fluorescence lifetime (in CO): 0.019 ns | fluorescence lifetime (in OCC(F)(F)F): 0.125 ns

Compound: CC1(C)c2ccccc2N(c2ccc(-c3ccc(C#N)cc3)cc2)c2ccccc21
fluorescence lifetime (in N#Cc1ccc2c(c1)c1ccccc1n2-c1cccc(-n2c3ccccc3c3ccccc32)c1): 6.99 ns

Compound: COC(=O)[C@@]12N=N[C@@](C(=O)OC)(C3[C@H]1C3(C)C)[C@H]1[C@@H]2C1(C)C (stereo partly drawn)
fluorescence lifetime (in CC#N): 101 ns

Compound: CCC1(CC)c2cc(N(c3ccccc3)c3ccccc3)ccc2-c2c1c1c(c3c2C(CC)(CC)c2cc(N(c4ccccc4)c4ccccc4)ccc2-3)C(CC)(CC)c2cc(N(c3ccccc3)c3ccccc3)ccc2-1
fluorescence lifetime (in C1CCOC1): 2.1 ns

Compound: COc1ccc(C2=C3C=c4c(oc5cc6c(cc45)[C@H]4CC[C@]5(C)C(=O)CC[C@H]5[C@@H]4CC6)=[N+]3[B-](F)(F)n3c2cc2c4cc5c(cc4oc23)CC[C@@H]2[C@@H]5CC[C@]3(C)C(=O)CC[C@@H]23)cc1
fluorescence lifetime (in CCOC(C)=O): 3.94 ns | fluorescence lifetime (in CCOCC): 4.04 ns | fluorescence lifetime (in CO): 3.71 ns
